Results taken from patent US4088778A, “Method for the treatment of hypertension” (priority 1975, dated 1978).

Assay: Clinical Test I, double blind: subjective symptoms
Format: in vivo, human patients
Conditions: for Stiffness in Shoulders: Improvement ratio: P group 45.2
Protocol: 94 patients of hypertension or arteriosclerosis having subjective symptoms were tested, and some of them suffered from complications such as ischemia heart disease, hypertensive heart disease and encephalomalacia.
As the active drug, there were employed hard capsules, each containing 100 mg of TN.
Two capsules were orally administered at one time, and the administration was conducted three times a day after eating. The period of the administration was principally 4 weeks or 6 weeks. During this period, the administration was performed continuously. Combined administration of drugs having the same function as that of TN (vitamin E drugs, nicotinic acid, its derivatives and peripheral vasolidators) was prohibited. Drugs which had been continuously administered since before the start of the administration of TN were similarly administered according to the disease case and symptom, and change of the prescription during the test was avoided.
In the above Table, the "Improved" means that the symptom was improved by at least one grade as compared with the symptom before the administration,and each number denotes the total number of the patients in whom the symptom was thus improved.
*The patients were divided into two groups, one in which the symptom was
improved by at least 2 grades (the sum of the patients in which the
symptoms were improved by 2, 3 and 4 grades) and the other in which the
symptom was improved by one grade, unchanged or worsened. The assay was
conducted on these two groups. (In other cases, the patients were divided
into two groups, one in which the symptom was improved by one grade and
the other in which the symptom was unchanged or worsened, and the assay
was made on these two groups.)
according to Fischer direct probability calculation method.

[1] = number of patients, total 3 (Table 9)
[2] = number of patients, total 7 (Table 9)
[3] = number of patients, total 8 (Table 9)
[4] = number of patients, total 9 (Table 9)
[5] = number of patients, total 9 (Table 10)
[6] = number of patients, total 11 (Table 9)
[7] = number of patients, total 13 (Table 9)
[8] = number of patients, total 14 (Table 9)
[9] = number of patients, total 15 (Table 9)
[10] = number of patients, total 16 (Table 9)
[11] = number of patients, total 16 (Table 10)
[12] = number of patients, total 17 (Table 9)
[13] = number of patients, total 18 (Table 9)
[14] = number of patients, total 18 (Table 10)
[15] = number of patients, total 23 (Table 9)
[16] = number of patients, total 23 (Table 10)
[17] = number of patients, total 25 (Table 9)
[18] = number of patients, total 25 (Table 10)
[19] = number of patients, total 26 (Table 9)
[20] = number of patients, total 26 (Table 10)
[21] = number of patients, total 28 (Table 9)
[22] = number of patients, total 28 (Table 10)
[23] = number of patients, total 30 (Table 9)
[24] = number of patients, total 51 (Table 10)

Cc1c(C)c2c(c(C)c1OC(=O)c1cccnc1)CCC(C)(CCCC(C)CCCC(C)CCCC(C)C)O2 (racemic) [TN, dl-α-tocopheryl nicotinate]
Forgetfulness: Improvement Ratio (Table 9, P group 21.7): 38.9%
Virtigo: Improvement Ratio (Table 9, P group 37.5): 66.7%
Pains on Waist and Back: Improvement Ratio (Table 9, P group 40.0): 64.7%
Syncope: Improvement Ratio (Table 9, P group 40.0): 75.0%
Chill on Limbs: Improvement Ratio (Table 9, P group 41.2): 35.7%
Stiffness in Nape: Improvement ratio (Table 9, P group 43.8): 68.0%
Stiffness in Shoulders: Improvement ratio (Table 9): 65.4%
Insomnia: Improvement ratio (Table 9, P group 47.4): 83.3%
Dizzy Feeling: Improvement ratio (Table 9, P group 50.0): 81.3%
Irritation: Improvement Ratio (Table 9, P group 50.0): 66.7%
Rush of Blood: Improvement Ratio (Table 9, P group 50.0): 69.2%
Tinnitus: Improvement Ratio (Table 9, P group 52.6): 50.0%
Palsy in Limbs: Improvement ratio (Table 9, P group 53.8): 82.6%
Short Breath: Improvement Ratio (Table 9, P group 53.8): 42.9%
Heaviness in Head: Improvement Ratio (Table 9, P group 62.5): 82.1%
Oppression on Breast: Improvement Ratio (Table 9, P group 63.6): 62.5%
Warmness: Improvement Ratio (Table 9, P group 66.7): 77.8%
Languor: Improvement Ratio (Table 9, P group 70.6): 60.0%
Palpitation: Improvement Ratio (Table 9, P group 76.9): 72.7%
Depression: Improvement Ratio (Table 9, P group 77.8): 42.9%
Headache: Improvement ratio (Table 9, P group 78.6): 83.3%
Pain on Breast: Improvement Ratio (Table 9, P group 100.0): 71.4%
Vertigo: Improvement ratio (Table 10, P group 37.5): 66.7%
Stiffness in Nape: Improvement ratio (Table 10, P group 43.8, chi0^2 = 3.3270, P < 0.10): 68.0%
Stiffness in Shoulders and Nape: Improvement ratio (Table 10, P group 44.4, chi0^2 = 5.6104, P < 0.025): 66.7%
Stiffness in Shoulders: Improvement ratio (Table 10): 65.4%
Vertigo plus Dizzy Feeling: Improvement ratio (Table 10, P group 46.4, chi0^2 = 8.3955, P < 0.005): 73.1%
Insomnia: Improvement ratio (Table 10, P group 47.4, P = 0.0247): 83.3%
Dizzy Feeling: Improvement ratio (Table 10, P group 50.0, chi0^2 = 7.4243, P < 0.01): 81.3%
Palsy in Limbs: Improvement ratio (Table 10, P group 53.8, P = 0.0318): 82.6%
Headache: Improvement ratio (Table 10, P group 62.5, chi0^2 = 3.1277, P < 0.10): 82.1%
relief of headache, vertigo, dizzy feeling, syncope, stiffness in the shoulders, stiffness in the nape, palsy in limbs, insomnia and pains on the waist and the back (human, in vivo): excellent effects were attained
Irritation: Improved [1]: 2
Irritation: Unchanged or Worsened [1]: 1
Depression: Improved [2]: 3
Depression: Unchanged or Worsened [2]: 4
Pain on Breast: Improved [2]: 5
Pain on Breast: Unchanged or Worsened [2]: 2
Short Breath: Improved [2]: 3
Short Breath: Unchanged or Worsened [2]: 4
Oppression on Breast: Improved [3]: 5
Oppression on Breast: Unchanged or Worsened [3]: 3
Syncope: Improved [3]: 6
Syncope: Unchanged or Worsened [3]: 2
Virtigo: Improved [4]: 6
Virtigo: Unchanged or Worsened [4]: 3
Warmness: Improved [4]: 7
Warmness: Unchanged or Worsened [4]: 2
Vertigo: Improved by 1 grade [5]: 1
Vertigo: Improved by 2 grades [5]: 3
Vertigo: Improved by 3 grades [5]: 1
Vertigo: Improved by 4 grades [5]: 1
Vertigo: Not Changed [5]: 2
Vertigo: Worsened by 1 grade [5]: 1
Vertigo: Worsened by 2 grades [5]: 0
Palpitation: Improved [6]: 8
Palpitation: Unchanged or Worsened [6]: 3
Rush of Blood: Improved [7]: 9
Rush of Blood: Unchanged or Worsened [7]: 4
Chill on Limbs: Improved [8]: 5
Chill on Limbs: Unchanged or Worsened [8]: 9
Languor: Improved [9]: 9
Languor: Unchanged or Worsened [9]: 6
Dizzy Feeling: Improved [10]: 13
Dizzy Feeling: Unchanged or Worsened [10]: 3
Tinnitus: Improved [10]: 8
Tinnitus: Unchanged or Worsened [10]: 8
Dizzy Feeling: Improved by 1 grade [11]: 0
Dizzy Feeling: Improved by 2 grades [11]: 11
Dizzy Feeling: Improved by 3 grades [11]: 1
Dizzy Feeling: Improved by 4 grades [11]: 1
Dizzy Feeling: Not Changed [11]: 2
Dizzy Feeling: Worsened by 1 grade [11]: 1
Dizzy Feeling: Worsened by 2 grades [11]: 0
Pains on Waist and Back: Improved [12]: 11
Pains on Waist and Back: Unchanged or Worsened [12]: 6
Forgetfulness: Improved [13]: 7
Forgetfulness: Unchanged or Worsened [13]: 11
Insomnia: Improved [13]: 15
Insomnia: Unchanged or Worsened [13]: 3
Insomnia: Improved by 1 grade [14]: 7
Insomnia: Improved by 2 grades [14]: 7
Insomnia: Improved by 3 grades [14]: 0
Insomnia: Improved by 4 grades [14]: 1
Insomnia: Not Changed [14]: 2
Insomnia: Worsened by 1 grade [14]: 1
Insomnia: Worsened by 2 grades [14]: 0
Palsy in Limbs: Improved [15]: 19
Palsy in Limbs: Unchanged or Worsened [15]: 4
Palsy in Limbs: Improved by 1 grade [16]: 11
Palsy in Limbs: Improved by 2 grades [16]: 7
Palsy in Limbs: Improved by 3 grades [16]: 1
Palsy in Limbs: Improved by 4 grades [16]: 0
Palsy in Limbs: Not Changed [16]: 4
Palsy in Limbs: Worsened by 1 grade [16]: 0
Palsy in Limbs: Worsened by 2 grades [16]: 0
Stiffness in Nape: Improved [17]: 17
Stiffness in Nape: Unchanged or Worsened [17]: 8
Stiffness in Nape: Improved by 1 grade [18]: 11
Stiffness in Nape: Improved by 2 grades [18]: 5
Stiffness in Nape: Improved by 3 grades [18]: 1
Stiffness in Nape: Improved by 4 grades [18]: 0
Stiffness in Nape: Not Changed [18]: 5
Stiffness in Nape: Worsened by 1 grade [18]: 2
Stiffness in Nape: Worsened by 2 grades [18]: 1
Vertigo plus Dizzy Feeling: Improved by 1 grade [18]: 1
Vertigo plus Dizzy Feeling: Improved by 2 grades [18]: 14
Vertigo plus Dizzy Feeling: Improved by 3 grades [18]: 2
Vertigo plus Dizzy Feeling: Improved by 4 grades [18]: 2
Vertigo plus Dizzy Feeling: Not Changed [18]: 4
Vertigo plus Dizzy Feeling: Worsened by 1 grade [18]: 2
Vertigo plus Dizzy Feeling: Worsened by 2 grades [18]: 0
Stiffness in Shoulders: Improved [19]: 17
Stiffness in Shoulders: Unchanged or Worsened [19]: 9
Stiffness in Shoulders: Improved by 1 grade [20]: 10
Stiffness in Shoulders: Improved by 2 grades [20]: 5
Stiffness in Shoulders: Improved by 3 grades [20]: 0
Stiffness in Shoulders: Improved by 4 grades [20]: 2
Stiffness in Shoulders: Not Changed [20]: 8
Stiffness in Shoulders: Worsened by 1 grade [20]: 1
Stiffness in Shoulders: Worsened by 2 grades [20]: 0
Heaviness in Head: Improved [21]: 23
Heaviness in Head: Unchanged or Worsened [21]: 5
Headache: Improved by 1 grade [22]: 7
Headache: Improved by 2 grades [22]: 12
Headache: Improved by 3 grades [22]: 4
Headache: Improved by 4 grades [22]: 0
Headache: Not Changed [22]: 4
Headache: Worsened by 1 grade [22]: 1
Headache: Worsened by 2 grades [22]: 0
Headache: Improved [23]: 25
Headache: Unchanged or Worsened [23]: 5
Stiffness in Shoulders and Nape: Improved by 1 grade [24]: 13
Stiffness in Shoulders and Nape: Improved by 2 grades [24]: 21
Stiffness in Shoulders and Nape: Improved by 3 grades [24]: 1
Stiffness in Shoulders and Nape: Improved by 4 grades [24]: 2
Stiffness in Shoulders and Nape: Not Changed [24]: 3
Stiffness in Shoulders and Nape: Worsened by 1 grade [24]: 1
Stiffness in Shoulders and Nape: Worsened by 2 grades [24]: 0
